# Assays:
# [1] = biological target: T1, Thyroid hormone receptor beta (Homo sapiens, UniProt P10828)
# T1 sequence (P10828 whole entry): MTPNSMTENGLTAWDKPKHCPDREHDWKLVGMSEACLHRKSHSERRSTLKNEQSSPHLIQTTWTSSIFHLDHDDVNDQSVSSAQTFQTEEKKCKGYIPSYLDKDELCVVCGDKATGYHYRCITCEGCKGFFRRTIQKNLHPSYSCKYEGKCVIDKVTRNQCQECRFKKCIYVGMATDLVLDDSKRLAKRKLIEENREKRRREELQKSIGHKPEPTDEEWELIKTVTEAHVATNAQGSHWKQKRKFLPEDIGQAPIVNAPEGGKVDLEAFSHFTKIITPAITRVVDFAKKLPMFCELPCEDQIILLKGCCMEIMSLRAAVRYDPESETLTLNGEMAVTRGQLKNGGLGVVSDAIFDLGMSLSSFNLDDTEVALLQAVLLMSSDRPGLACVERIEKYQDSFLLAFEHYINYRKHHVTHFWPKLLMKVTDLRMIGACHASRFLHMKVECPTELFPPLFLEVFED
# [2] = biological target: T2, Thyroid hormone receptor alpha (Homo sapiens, UniProt P10827)
# T2 sequence (P10827 whole entry): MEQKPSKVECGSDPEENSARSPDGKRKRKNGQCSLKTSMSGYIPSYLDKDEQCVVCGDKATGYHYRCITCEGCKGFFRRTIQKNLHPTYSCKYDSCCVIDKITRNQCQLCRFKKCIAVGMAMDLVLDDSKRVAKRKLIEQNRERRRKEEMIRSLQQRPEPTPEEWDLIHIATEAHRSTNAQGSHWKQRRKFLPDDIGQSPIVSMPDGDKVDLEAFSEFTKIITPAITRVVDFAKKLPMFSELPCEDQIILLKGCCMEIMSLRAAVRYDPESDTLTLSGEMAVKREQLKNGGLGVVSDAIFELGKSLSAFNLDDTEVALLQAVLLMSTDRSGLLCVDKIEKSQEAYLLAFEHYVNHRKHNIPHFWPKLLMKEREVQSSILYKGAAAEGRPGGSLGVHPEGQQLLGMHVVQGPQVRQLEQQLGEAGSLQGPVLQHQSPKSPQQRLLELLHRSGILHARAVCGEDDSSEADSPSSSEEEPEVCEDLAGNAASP
# [3] = biological target: T1, Thyroid hormone receptor beta; remark: listed apart in the source
# [4] = biological target: T2, Thyroid hormone receptor alpha; remark: listed apart in the source
# Description: Effect on human TRalpha transactivation activity in HeLa cells by luciferase reporter assay
# [5] = biological target: T2, Thyroid hormone receptor alpha; remark: listed apart in the source
# Description: Effect on human TRalpha transactivation activity in U2OS cells by luciferase reporter assay
# [6] = biological target: T1, Thyroid hormone receptor beta; remark: listed apart in the source
SMILES,Kd [1] [nM],Kd [2] [nM],EC50 [3] [nM],EC50 [4] [nM],EC50 [5] [nM],EC50 [6] [nM]
CCc1cc(Oc2c(I)cc(CC3NC(=O)NC3=O)cc2I)ccc1O (centres undefined),18,15,27,10,87,1400
CC(C)c1cc(Oc2c(I)cc(CC3NC(=O)NC3=O)cc2I)ccc1O (centres undefined),1.7,1.2,58,11,34,390
O=C1NC(=O)C(Cc2cc(I)c(Oc3ccc(O)cc3)c(I)c2)N1 (centres undefined),2000,1700,> 10000,> 10000,> 20000,> 20000
COc1cc(Oc2c(I)cc(CC3NC(=O)NC3=O)cc2I)ccc1O (centres undefined),119,82,265,42,870,8000

# Further compounds by falling Kd [1], results first:
Kd [1] [nM],Kd [2] [nM],EC50 [3] [nM],EC50 [4] [nM],EC50 [5] [nM],EC50 [6] [nM],SMILES
68,43,530,44,206,5200,O=C1NC(=O)C(Cc2cc(I)c(Oc3ccc(O)c(Br)c3)c(I)c2)N1 (centres undefined)
53,42,180,27,146,4000,Cc1cc(Oc2c(I)cc(CC3NC(=O)NC3=O)cc2I)ccc1O (centres undefined)
49,25,100,39,145,2000,O=C1NC(=O)C(Cc2cc(I)c(Oc3ccc(O)c(C4CC4)c3)c(I)c2)N1 (centres undefined)
36,24,216,21,105,2000,O=C1NC(=O)C(Cc2cc(I)c(Oc3ccc(O)c(I)c3)c(I)c2)N1 (centres undefined)
18.4,17,32,8.4,128,421,CC(C)c1cc(Oc2c(Br)cc(CC3NC(=O)NC3=O)cc2Br)ccc1O (centres undefined)

# Reference: ChEMBL document CHEMBL1143954, “Characterization of thyroid hormone receptor alpha (TRalpha)-specific analogs with varying inner- and outer-ring substituents” (Bioorg Med Chem, 2008)
